We go through 16 compounds from patent US20260217693A1, “SRPK1 INHIBITORS AND METHODS OF USE” (ALLIANTHERA (SUZHOU) BIOPHARMACEUTICAL CO., LTD., priority 2023, published 2026).

Each structure is given as a SMILES string. pIC50: −log10 of the molar value.

Experiment [1] addresses T1, SRPK1 (Homo sapiens, UniProt Q96SB4). As to the kind of experiment: SRPK1 assay, Method 2 (ADP-Glo luminescence). The experiment is classed as biochemical. The following applies: Method 2 (asterisk): substrate Human SRSF1/SF2 0.15 μM, ATP 4 μM, 25° C. for 3 h, test compounds 100 nM top, 3-fold, 10 dose. The method, then: (§1) The SPRK1 assay was performed as follows:
Method 2: The assay buffer was prepared. The reference compound was diluted to 1 mM in the assay buffer. The test compounds were prepared at a concentration of 100 μM, then diluted 3-fold. Five nL of compounds/DMSO were transferred to 384-well plate. The reference compound is 1000 nM top concentration, 3-fold, 10 dose. The test compounds are 100 nM top concentration, 3-fold, 10 dose. 2.5 ul of enzyme (SRPK1 final concentration at […]) was added to each well, then the plate was spun down at 1000 rpm and centrifuged for 30 sec. After, 2.5 ul substrate (Human SRSF1/SF2 final concentration of 0.15 μM, ATP final concentration of 4 μM) was added to the plate, spun down at 1000 rpm and centrifuged for 30 sec. The plate was then placed in an incubator at 25° C. for 3 h. Then, 5 μl of ADP-Glo™ Reagent was added to each well, and the plate incubated at room temperature for 60 minutes. After 60 min, 10 μl of Kinase Detection Reagent was added to each well, and the plate was incubated at room temperature for 30 minutes. The luminescence of each well was recorded on Envision.
All assays were performed using Method 1, except where indicated with an asterisk (*) in the below table, indicating Method 2 was used. I.A. indicates an IC50 greater than 30 μM.
(In general: ADP-Glo first removes unused ATP, then detects ADP through luciferase.)

Experiment [2] concerns the target T1, SRPK1. Put plainly: SRPK1 assay, Method 1 (ADP-Glo luminescence). The experiment is classed as biochemical. The following applies: Method 1 (no asterisk): substrate Human SRSF1/SF2, 25° C. for 90 min, test compounds 30 μM top, 3-fold, duplicate. The method, then:
as §1
Method 1: The assay buffer was prepared. The reference compound was diluted to 10 mM. The test compounds were prepared at a concentration of 30 mM. Fifteen nL of compounds/DMSO were transferred to a multi-well plate. Then, 7.5 ul enzyme SRPK1 was added to each well, the plate was spun down at 1000 rpm and centrifuged for 30 sec. Then, 7.5 ul substrate Human SRSF1/SF2 was added to each well, the plate spun down at 1000 rpm and centrifuged for 30 sec. The plate was then incubated at 25° C. for 90 min. After 90 min, 5 μl of ADP-Glo™ Reagent was added to each well and the plate incubated at room temperature for 60 minutes. Then, 10 μl of Kinase Detection Reagent was added to each well and the plate incubate at room temperature for 60 minutes. The luminescence of each well was recorded on Envision. The test compounds were at 30 μM top, 3-fold, in duplicate, and the final concentration of DMSO was 0.1%.
All assays were performed using Method 1, except where indicated with an asterisk (*) in the below table, indicating Method 2 was used.

T1 sequence (Q96SB4 whole entry): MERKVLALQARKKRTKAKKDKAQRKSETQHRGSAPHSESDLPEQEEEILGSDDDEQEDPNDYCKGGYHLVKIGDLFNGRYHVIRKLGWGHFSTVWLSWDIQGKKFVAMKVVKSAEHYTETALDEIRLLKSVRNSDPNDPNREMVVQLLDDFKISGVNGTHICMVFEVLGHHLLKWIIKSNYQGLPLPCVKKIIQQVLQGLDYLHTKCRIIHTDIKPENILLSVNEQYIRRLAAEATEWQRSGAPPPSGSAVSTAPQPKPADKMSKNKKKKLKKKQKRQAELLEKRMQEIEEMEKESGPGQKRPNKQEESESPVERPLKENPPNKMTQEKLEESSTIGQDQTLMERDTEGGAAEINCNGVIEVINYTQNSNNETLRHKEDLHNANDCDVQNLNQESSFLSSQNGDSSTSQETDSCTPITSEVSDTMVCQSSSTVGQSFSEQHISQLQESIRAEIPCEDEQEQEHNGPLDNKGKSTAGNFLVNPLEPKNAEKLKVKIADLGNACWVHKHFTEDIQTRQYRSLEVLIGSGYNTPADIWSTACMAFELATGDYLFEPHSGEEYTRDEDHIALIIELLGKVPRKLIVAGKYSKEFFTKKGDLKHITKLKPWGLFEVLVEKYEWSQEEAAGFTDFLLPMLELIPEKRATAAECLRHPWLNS

`Nc1cc(-c2ccc(C(=O)Nc3cc(C4CC4)cnc3N3CCC(O)CC3)o2)cc(N)n1` [Compound 020]: the negative-log IC50 (pIC50) (in general, the IC50 on a negative log10 scale, so that one unit is a factor of ten) at SRPK1 [1] is 9.61.

Regarding `CC1(O)CCN(c2ncc(C3CC3)cc2NC(=O)c2ccc(-c3cn[nH]c3)o2)CC1` [Compound 095, N-[5-cyclopropyl-2-(4-hydroxy-4-methyl-1-piperidyl)-3-pyridyl]-5-(1H-pyrazol-4-yl) furan-2-carboxamide], on SRPK1 [1], the pIC50 was 9.11.

`O=C(Nc1cc(C(F)(F)F)cnc1N1CCC(O)CC1)c1ccc(-c2cn[nH]c2)o1` [Compound 053] gave a pIC50 on SRPK1 [1] of 8.70.

`Nc1cc(-c2ccc(C(=O)Nc3cc(C4CC4)cnc3N3CCC(O)CC3)o2)ccn1` [Compound 018] had a pIC50 against SRPK1 [1] of 9.03.

`Nc1cc(-c2ccc(C(=O)Nc3cc(C(F)(F)F)cnc3N3CCC(O)CC3)o2)ccn1` [Compound 015] had a negative-log IC50 (pIC50) at SRPK1 [1] of 8.40.

`O=C(Nc1cc(C(F)(F)F)cnc1N1CCC(O)CC1)c1ccc(-c2cn[nH]c2)cn1` [Compound 097, N-[2-(4-hydroxy-1-piperidyl)-5-(trifluoromethyl)-3-pyridyl]-5-(1H-pyrazol-4-yl)pyridine-2-carboxamide]: at SRPK1 [1], the pIC50 is 8.49.

On SRPK1 [1], `CC1(C(N)=O)CCN(c2ncc(C(F)(F)F)cc2NC(=O)c2ccc(C3CCOCC3)o2)CC1` [Compound 048] had a pIC50 of 7.60.

The compound `O=C(Nc1cc(C2CC2)cnc1N1CCC(O)CC1)c1ccc(-c2cn[nH]c2)o1` [Compound 086] gave a pIC50 at SRPK1 [1] of 9.21.

On to `O=C(Nc1cc(C2CC2)cnc1N1CCC(O)CC1)c1ccc(-c2ccnc(O)c2)o1` [Compound 022], for which the pIC50 against SRPK1 [1] was 8.85.

For the compound `O=C(Nc1cc(C(F)(F)F)cnc1N1CCOCC1)c1ccc(C2CCOCC2)o1` [Compound 037], the pIC50 against SRPK1 [2] was under 4.52.

With `C[C@H]1C[C@H](O)CCN1c1ncc(C(F)(F)F)cc1NC(=O)c1ccc(C2CCOCC2)o1` [Compound 076], the pIC50 at SRPK1 [2] is 7.85.

The compound `CN1CCC(c2ccc(C(=O)Nc3cc(C(F)(F)F)cnc3N3CCC(O)CC3)o2)CC1` [Compound 066, N-[2-(4-hydroxy-1-piperidyl)-5-(trifluoromethyl)-3-pyridyl]-5-(1-methyl-4-piperidyl) furan-2-carboxamide] had a negative-log IC50 (pIC50) at SRPK1 [2] of under 4.52.

For `COc1ccc(C(=O)Nc2cc(C(F)(F)F)cnc2N2CCC(O)CC2)nc1` [Compound 090], the pIC50 against SRPK1 [2] is 5.86.

`Cn1cc(-c2ccc(C(=O)Nc3cc(C(F)(F)F)cnc3N3CCC(O)CC3)o2)cn1` [Compound 054]: the pIC50 at SRPK1 [2] was 7.73.

With `NC(=O)C1CCN(c2ncc(C(F)(F)F)cc2NC(=O)c2ccc(C3CCOCC3)o2)CC1` [Compound 088], the pIC50 against SRPK1 [2] is 7.14.

Compound `O=C(Nc1cc(C2CC2)cnc1N1CCC(O)CC1)c1ccc(C2CCOCC2)o1` [Compound 029] gave a negative-log IC50 (pIC50) against SRPK1 [2] of 7.51.
